{
  "source": "ChEMBL document CHEMBL1649464",
  "about": "“Galleria mellonella as a model system to study Acinetobacter baumannii pathogenesis and therapeutics” (2009)",
  "key": {"[1]": {"system": "Acinetobacter baumannii", "experiment": "Antibacterial activity against Acinetobacter baumannii A9844 infected in Galleria mellonella caterpillar assessed as prolonged survival rate at 50 mg/kg administered as single dose", "type": "functional, organism-based", "parameters": "dose 50 mg/kg"}, "[2]": {"system": "Acinetobacter baumannii", "experiment": "Antibacterial activity against Acinetobacter baumannii A9844 infected in Galleria mellonella caterpillar assessed as prolonged survival rate at 150 mg/kg administered as single dose", "type": "functional, organism-based", "parameters": "dose 150 mg/kg"}, "[3]": {"system": "Acinetobacter baumannii", "experiment": "Antibacterial activity against Acinetobacter baumannii A9844 infected in Galleria mellonella caterpillar assessed as prolonged survival rate at 60 mg/kg administered as single dose", "type": "functional, organism-based", "parameters": "dose 60 mg/kg"}, "[4]": {"system": "Acinetobacter baumannii", "experiment": "Antibacterial activity against carbapenem-resistant Acinetobacter baumannii A3587 infected in Galleria mellonella caterpillar assessed as prolonged survival rate at 60 mg/kg administered as single dose", "type": "functional"}, "[5]": {"system": "Acinetobacter baumannii", "experiment": "Antibacterial activity against Acinetobacter baumannii A9844 infected in Galleria mellonella caterpillar assessed as prolonged survival rate at 6 mg/kg administered as single dose", "type": "functional, organism-based", "parameters": "dose 6 mg/kg"}},
  "note": "Active and inactive are the calls of the source. The calls are words filed in the database; no cut-off is given here.",
  "data": [
    {"compound": "CN(C)[C@@H]1C(O)=C(C(N)=O)C(=O)[C@@]2(O)C(O)=C3C(=O)c4c(O)cccc4[C@@](C)(O)[C@H]3C[C@@H]12", "values": [
      {"measurement": "Activity", "setting": "[1]", "result": "inactive"}
    ]},
    {"compound": "CO/N=C(\\C(=O)N[C@@H]1C(=O)N2C(C(=O)O)=C(COC(C)=O)CS[C@H]12)c1csc(N)n1", "values": [
      {"measurement": "Activity", "setting": "[2]", "result": "inactive"}
    ]},
    {"compound": "C[C@@H](O)[C@H]1C(=O)N2C(C(=O)O)=C(S[C@@H]3CN[C@H](C(=O)N(C)C)C3)[C@H](C)[C@H]12", "note": "[MEROPENEM]", "values": [
      {"measurement": "Activity", "setting": "[3]", "result": "Active"},
      {"measurement": "Activity", "setting": "[4]", "result": "<=12%"}
    ]},
    {"compound": "GENTAMICIN", "values": [
      {"measurement": "Activity", "setting": "[5]", "result": "Active"}
    ]}
  ]
}
